Measurements as given in US20080220416A1, “Compositions for Inhibiting Cell Growth and Inducing Apoptosis in Cancer Cells and Methods of Use Thereof” (THE BOARD OF TRUSTEES OF THE UNIVERSITY OF ILLINOI, priority 2004, published 2008).
Peptide text beside a SMILES is read from it. * marks the point of attachment. Cbz = O=C(OCc1ccccc1)*

What was measured:
Format in all cases: cell-based, human
[1] = test system: MDA-MB231 breast cancer cells; test: Extracellular matrix invasion of MDA-MB231 cells (Matrigel Invasion Chambers); settings: 25 μM, 22 h
Protocol: (§1) Cytotoxicity and growth of transfected cells were estimated by a standard assay used for cancer drug screening, through the total amount of TCA-precipitated cell proteins after drug treatment (Likhitwitayawuid, K et al., 1993, J Nat Prod 56:30-38): 200 μl of cell suspension (10^5 cells/ml) were added to each well in a 96-well plate. After incubation at, 37° C., in 5% CO2 (30 minutes to 72 hours depending on the time course chosen), 50 μl 50% trichloroacetic acid was added to each well. After incubation at 4° C. for 1 hour, precipitates were washed with water 4-5 times and air dried overnight. One hundred μl of SRB solution (0.4% sulforhodamine B in 1% acetic acid, filtered before use) was added to each well for 30 minutes. Wells were washed with 1% acetic acid 4-5 times and air dried. Two hundred μl 10 mM Tris base was added to each well. Plates were shaken for 5-10 minutes and OD at 490 nm (OD490) was recorded via ELISA reader. To assay matrix invasion, 300 μl of cell suspension (10^6 cells/mL in serum-free medium) were added to invasion inserts (BioCoat Matrigel Invasion Chambers, Becton Dickinson, Bedford, Mass.) and incubated for 22 hours at 37° C., 5% CO2. Cells were stained with 0.9% crystal violet in 10% ethanol for 20 minutes. Inserts were dipped in water several times and air dried. After removal of the non-invading cells from the interior of the inserts, stained invading cells were lysed in 10% acetic acid and OD595 was determined.
Notch silencing was confirmed by Western blot as described above in Example 15 using commercial goat polyclonal antibodies from Santa Cruz Biotechnology to Notch-1 (C-20, Cat# sc-6014 S). For the Western blot analyses, MDA-MB231 cells were treated with 25 μM IL-X for 48 h or with 0.5, 1 or 2 μM z-Leu-Leu-Nle-CHO for 24 h. Cytotoxicity and matrix invasion assays were performed as described above in Example 15. For the cytotoxicity assays, MDA-MB231 cells were treated with […] IL-X for up to 3 days or with 0-20 μM z-Leu-Leu-Nle-CHO for up to 4 days. […]

[2] = test system: MDA-MB231 breast cancer cells; test: Cytotoxicity and growth assay in MDA-MB231 breast cancer cells (SRB, TCA-precipitated protein); settings: MDA-MB231; up to 3 days
Protocol: An invasive, estrogen-independent breast cancer cell line that spontaneously expresses high levels of Notch-1 and -4, MDA-MB231, and normal human breast cells were used to investigate whether inhibition of Notch activation or expression affects the biological behavior of breast cancer cells. Human Mammary Epithelial Cells (HMEC) were purchased from Clonetics and cultured in mammary epithelial cell basal medium (MEBM) supplemented with 52 μg/ml Bovine Pituitary Extract […], […] human recombinant Epidermal Growth Factor (hEGF), 5 μg/ml insulin, 0.5 μg/ml Hydrocortisone, 50 μg/ml Gentamicin and 50 μg/ml Amphotericin-B. MDA-MB231 (ATCC, Rockville, Md.) were cultured in DMEM medium with 10% FBS. Notch expression in HMEC and MDA-MB231 cells was silenced using highly specific RNAi. Double-stranded synthetic 21-mer RNA oligonucleotides (siRNAs) were purchased from Dharmacon (Lafayette, Colo.). […] Sequence specificity was determined by BLAST searches which determined the uniqueness of the sequences. Transfection of siRNAs was performed using Oligofectamine (Invitrogen) as recommended by the siRNA manufacturer (Dharmacon). Transfection efficiency was optimized and followed on parallel wells using DNA double stranded oligos of identical sequence to the siRNAs, labeled with biotin on one strand. Transfected cells were identified by Streptavidin-horseradish peroxidase staining (Vectastain) and counted. Transfection efficiencies around 80% were routinely obtained.
as §1, with “Cells were stained with 0.9% crystal violet in 10% ethanol for 20 minutes. Inserts were dipped in water several times and air dried.” left out, “determined. […]” for “determined.”

Notch-1 = test: Notch Western blot in MDA-MB231 cells; settings: MDA-MB231; 25 μM; 48 hours
Protocol: Notch silencing was confirmed by Western blot using commercial goat polyclonal antibodies from Santa Cruz Biotechnology to Notch-1 (C-20, Cat# sc-6014 S) and Notch-4 (C-19, Cat# sc-8644). Total cell lysates were prepared as follows: cells grown on 6 cm dishes were scraped in lysis buffer containing 1×PBS, 1% Nonidet P40, 0.5% deoxycholate, 0.1% SDS, freshly added aprotinin (45 μg/ml), phenylmethylsulfonyl fluoride (10 μg/ml), and sodium orthovanadate (10 μM). Lysates were sonicated 4 times for 5 seconds each, followed by 30 minutes incubation on ice. Lysates were centrifuged at 10,000 g for 20 minutes at 4° C. Supernatants were used as total cell lysates. Nuclear extracts were prepared as follows: 10,000,000 cells were pelleted, washed, and quickly frozen in a dry ice bath. Pellets were thawed by adding 100 μl of buffer 1 (10 mM HEPES, pH 7.9, 10 mM KCl, 1.5 mM MgCl2, 1 mM DTT). Nuclei were pelleted and lysed in 15 μl Buffer 2 (20 mM HEPES, pH7.9, 0.4 M NaCl, 1.5 mM MgCl2, 25% glycerol, 0.2 mM EDTA, 1 mM DTT, and 0.5 mM PMSF). Lysates were diluted in 50-70 μl Buffer 3 (20 mM HEPES, pH 7.9, 50 mM KCl, 20% glycerol, 0.2 mM EDTA, 1 mM DTT, 0.5 mM PMSF). Protein concentrations were estimated using the BCA protein assay (Pierce). Supernatants were boiled in reducing SDS sample buffer (Novex). Twenty μg protein per lane were run on a 3-8% Tris acetate gel (Invitrogen) in Tris Acetate Reducing Running Buffer (Novex). Protein bands were transferred onto PVDF membranes (BioRad) using transfer buffer (Novex). Membranes were then blocked overnight at 4° C. in 2% blocking solution in TBS (Roche). Primary antibodies were diluted in 2% Boehringer blocking solution (total volume 5 ml). Membranes were incubated for one hour at room temperature with shaking, then washed 6 times for 10 minutes each in TBS wash buffer. Membranes were incubated in secondary antibody in 2% of blocking solution for 30 minutes, then washed 6 times for 10 minutes each at RT in wash buffer. Bands were detected with chemiluminescent reagent (Roche) according to the manufacturer's directions. […]

NOXA [3] = test: Western blot of NOXA after proteasome inhibitors in melanoma cells; settings: RJ002L, C8161, MUM2B; 1 μM or 10 μM; 18 hrs
Source text: (§2) A panel of melanoma cells were used to assess the effect of bortezomib on pro-apoptotic proteins. RJ002L, C8161, MUM2B and SK-MeI-28 melanoma cells, as well as two normal melanocyte cultures (MC-010 and MC-012) were examined. Prior to testing, the RJ002L melanoma cell lines were maintained in RPMI supplemented with 10% FBS. Late passage melanoma cell lines (C8161, MUM2B and SK-Me1028) were utilized as previously described (Welch D et al., 1991, Int J Cancer 47:227-237; Bittner M et al., 2000, Nature 406:536-540). Normal human melanocytes were isolated from neonatal foreskins and cultured as previously described (Qin J et al., 2004, Mol Cancer Ther 3:895-902). Proliferating cells were examined by Western blot analysis before and after 18 hrs of exposure to bortezomib (1 μM). Antibodies were obtained as follows: Bad (SC-8044), Bcl-2 (SC-7382), Bcl-xL (SC-634), Mcl-1 (SC-819), Bak (SC-832) from Santa Cruz Biotechnology (Santa Cruz, Calif.); NOXA (OP180) from Calbiochem; Bid, Bim and PUMA from Cell Signaling (Beverly, Mass.); BAX from Upstate (Charlottesville, Va.); and β-actin from ICN (Irvine, Calif.). For the Western blot analysis, whole cell extracts were prepared as previously described (Denning M et al., 1998, J Biol Chem 273:29995-30002). Briefly, cells were harvested by scraping monolayers and washed with PBS. Cell pellets were resuspended in CHAPS buffers containing a protease inhibitor cocktail. Extracts were vigorously shaken at 4° C. for 15 min followed by centrifugation. Supernatants were collected and protein concentration determined using Bio-Rad reagent. Thirty to 50 microgram protein samples were resolved by SDS-polyacrylamide gel electrophoresis and transferred to polyvinylidene difluoride membrane by electroblotting. Membranes were probed with the various primary antibodies overnight at 4° C., followed by detection using ECL reagents (Amersham Pharmacia Biotech, Piscataway, N.J.) according to manufacturer's instructions.
(§3) Two other proteasome inhibitors, lactasytsin and MG-132, were tested for the ability to induce NOXA in melanoma cells and melanocytes. […]

NOXA [4] = test: Western blot of NOXA after proteasome inhibitors in normal melanocytes; settings: MC-004, MC-005, MC-006, MC-008; 1 μM or 10 μM; 18 hrs
Source text: as §2, §3

melanoma cell lines = test: Proteasome inhibitors, apoptosis of melanoma cell lines (Annexin V FITC flow cytometry); settings: RJ002L, MG012, C8161, MUM2B, SK-MeI-28; 1-10 μM; 24 hrs
Protocol: (§4) The proteasome inhibitors lactacystin, MG-132, and bortezomib were evaluated for the ability to induce apoptosis in malignant melanoma cell lines (n=3) including an early passage line, RJ002L. MG-132 was obtained from Calbiochem (La Jolla, Calif.) and dissolved in DMSO. Lactacystin was purchased from Sigma Chemical Co. (St. Louis, Mo.) and dissolved in PBS. Bortezomib was obtained from a pharmacy as VELCADE (bortezomib) for Injection from a single use vial for intravenous use only (Millennium Pharmaceuticals, Cambridge, Mass.). A cell line with wild-type p53 (RJ002L) and two melanoma cell lines with mutant p53 alleles (C8161 and MUM2B) were included in this study. Two additional melanoma cell lines were also used: cutaneous SK-MeI-28 cells and primary, early passage MG012 cells. In addition, five normal melanocyte culture cell lines (MC-005, MC-006, MC-008, MC-009 and MC-011) were examined. Prior to testing, the melanoma cell lines were maintained in RPMI supplemented with 10% FBS. Normal human melanocytes were isolated from neonatal foreskins as previously described (Qin J et al., 2004, Mol Cancer Ther 3:895-902, 2004) and cultured with medium 154 containing growth supplements (Cascade Biologics, Portland, Oreg.).
To assess the effect of proteasome inhibitors on the cell lines, the cells were grown in suitable culture media as described above. Highly proliferating cells (i.e., cells that had reached approximately 30% confluency) were exposed to the inhibitors as described below. The culture media was replenished with media containing proteasome inhibitors at various concentrations and the cells were incubated for 24 hours prior to harvesting the cells for further analysis.
(§5) Following treatment with the proteasome inhibitors, the melanoma and melanocyte cell cultures were assayed for apoptotic cells using the APO TARGET Annexin V FITC staining kit (Biosource, Camarillo, Calif.) according to the manufacturer's instructions followed by flow cytometric analysis using FACScaliber (Becton Dickinson, Palo Alto, Calif.) as described in Qin, J. et al., 2001, Nat Med 7: 385-386. In some cases, cell cycle and apoptosis analysis was measured using propidium iodide staining and flow cytometry as described. Cells with DNA content less than the G0 amount of untreated cells were considered apoptotic. For cell analysis, DNA histograms were analyzed using MultiCycle for Windows (Phoenix Flow Systems, San Diego, Calif.) as described in Denning, M. F. et al., 1998, J Biol Chem 273: 29995-30002.

normal melanocytes = test: Proteasome inhibitors, apoptosis of normal melanocyte cultures (Annexin V FITC flow cytometry); settings: MC-005, MC-006, MC-008; 24 hrs; 1, 5 or 10 μM
Protocol: as §4
To assess the effect of proteasome inhibitors on the cell lines, the cells were grown in suitable culture media as described above. […]
as §5, with “Cells with DNA content less than the G0 amount of untreated cells were considered apoptotic.” left out

SMILES	in vitro matrix invasion [1]	concentration above which cytotoxic [2]	molecular forms of Notch-1 (Notch-1)	NOXA induction (NOXA [3])	NOXA induction (NOXA [4])	apoptotic response to increasing concentrations (melanoma cell lines)	cells undergoing apoptosis (normal melanocytes)
CCC(C)C(NC(=O)OCc1ccccc1)C(=O)NC(C=O)CC(C)C (stereo not drawn) [IL-X, cbz-IL-CHO] (Cbz-Ile-Leu-aldehyde; configuration not given here)	significantly reduced in vitro matrix invasion	above 100 μM	apparent reduction in all molecular forms of Notch-1	–	–	–	–
CC(=O)N[C@@H](CSC(=O)[C@]1([C@@H](O)C(C)C)NC(=O)[C@H](C)[C@@H]1O)C(=O)O [lactacystin]	–	–	–	induced high NOXA levels	no induction of NOXA in any of the normal melanocytes	significantly enhanced apoptotic responses	no more than 10%
